Measured values as given in the NIST ThermoML archive (doi:10.1021/je200213h).

How the values were obtained:
[1] = xn = mol fraction of the nth substance listed; settings: 101 kPa, Liquid, Capillary tube (Ostwald / Ubbelohde) method
[2] = 101.33 kPa, Liquid, Capillary tube (Ostwald / Ubbelohde) method

CCC(C)(C)C [2,2-dimethylbutane] + CCCCCl
kinematic viscosity [m2/s], [1]
Settings | 283.15 K | 298.15 K | 313.15 K
x1 = 0.0524 | 5.594e-07 | 4.802e-07 | 4.231e-07
x1 = 0.101 | 5.603e-07 | 4.809e-07 | 4.239e-07
x1 = 0.1995 | 5.627e-07 | 4.822e-07 | 4.253e-07
x1 = 0.3081 | 5.663e-07 | 4.846e-07 | 4.275e-07
x1 = 0.3985 | 5.705e-07 | 4.867e-07 | 4.294e-07
x1 = 0.499 | 5.76e-07 | 4.898e-07 | 4.322e-07
x1 = 0.5984 | 5.822e-07 | 4.943e-07 | 4.362e-07
x1 = 0.7015 | 5.899e-07 | 5e-07 | 4.409e-07
x1 = 0.7986 | 5.992e-07 | 5.063e-07 | 4.463e-07
x1 = 0.9002 | 6.098e-07 | 5.133e-07 | 4.52e-07
x1 = 0.9487 | 6.16e-07 | 5.17e-07 | 4.55e-07

CC(C)(C)Cl [2-chloro-2-methylpropane]
[2]
Settings | kinematic viscosity [m2/s]
283.15 K | 6.992e-07
298.15 K | 5.696e-07
313.15 K | 4.77e-07

CC(C)(C)Cl [2-chloro-2-methylpropane] + CCC(C)CC
kinematic viscosity [m2/s], [1]
Settings | 283.15 K | 298.15 K | 313.15 K
x2 = 0.0496 | 6.755e-07 | 5.548e-07 | 4.681e-07
x2 = 0.0995 | 6.538e-07 | 5.4e-07 | 4.576e-07
x2 = 0.2046 | 6.148e-07 | 5.14e-07 | 4.4e-07
x2 = 0.3023 | 5.848e-07 | 4.937e-07 | 4.256e-07
x2 = 0.405 | 5.592e-07 | 4.767e-07 | 4.14e-07
x2 = 0.5064 | 5.394e-07 | 4.637e-07 | 4.051e-07
x2 = 0.6033 | 5.235e-07 | 4.536e-07 | 3.984e-07
x2 = 0.7038 | 5.114e-07 | 4.462e-07 | 3.933e-07
x2 = 0.8012 | 5.026e-07 | 4.41e-07 | 3.9e-07
x2 = 0.9018 | 4.964e-07 | 4.377e-07 | 3.881e-07
x2 = 0.9514 | 4.946e-07 | 4.372e-07 | 3.88e-07

CC(C)(C)Cl [2-chloro-2-methylpropane] + CCCCCC
kinematic viscosity [m2/s], [1]
Settings | 283.15 K | 298.15 K | 313.15 K
x2 = 0.0495 | 6.722e-07 | 5.527e-07 | 4.671e-07
x2 = 0.0989 | 6.489e-07 | 5.369e-07 | 4.565e-07
x2 = 0.2019 | 6.091e-07 | 5.105e-07 | 4.391e-07
x2 = 0.2987 | 5.81e-07 | 4.916e-07 | 4.266e-07
x2 = 0.4043 | 5.575e-07 | 4.756e-07 | 4.162e-07
x2 = 0.4985 | 5.415e-07 | 4.651e-07 | 4.095e-07
x2 = 0.6024 | 5.287e-07 | 4.571e-07 | 4.048e-07
x2 = 0.7017 | 5.203e-07 | 4.516e-07 | 4.019e-07
x2 = 0.7996 | 5.151e-07 | 4.489e-07 | 4.009e-07
x2 = 0.9025 | 5.123e-07 | 4.478e-07 | 4.016e-07
x2 = 0.9498 | 5.119e-07 | 4.483e-07 | 4.023e-07

CC(C)(C)Cl [2-chloro-2-methylpropane] + CCCCCCC
kinematic viscosity [m2/s], [1]
Settings | 283.15 K | 298.15 K | 313.15 K
x2 = 0.0519 | 6.84e-07 | 5.603e-07 | 4.741e-07
x2 = 0.1021 | 6.722e-07 | 5.532e-07 | 4.711e-07
x2 = 0.2015 | 6.546e-07 | 5.438e-07 | 4.675e-07
x2 = 0.3006 | 6.44e-07 | 5.389e-07 | 4.666e-07
x2 = 0.3997 | 6.391e-07 | 5.38e-07 | 4.679e-07
x2 = 0.5027 | 6.376e-07 | 5.391e-07 | 4.699e-07
x2 = 0.6011 | 6.397e-07 | 5.434e-07 | 4.735e-07
x2 = 0.7014 | 6.441e-07 | 5.489e-07 | 4.78e-07
x2 = 0.8007 | 6.504e-07 | 5.572e-07 | 4.832e-07
x2 = 0.8966 | 6.591e-07 | 5.652e-07 | 4.894e-07
x2 = 0.9518 | 6.651e-07 | 5.706e-07 | 4.944e-07

CCC(C)Cl (centres undefined) [2-chlorobutane]
[2]
Settings | kinematic viscosity [m2/s]
283.15 K | 5.237e-07
298.15 K | 4.603e-07
313.15 K | 4.049e-07

CCC(C)Cl (centres undefined) [2-chlorobutane] + CCC(C)CC
kinematic viscosity [m2/s], [1]
Settings | 283.15 K | 298.15 K | 313.15 K
x2 = 0.0518 | 5.193e-07 | 4.574e-07 | 4.031e-07
x2 = 0.101 | 5.142e-07 | 4.542e-07 | 4.004e-07
x2 = 0.2014 | 5.066e-07 | 4.483e-07 | 3.958e-07
x2 = 0.3025 | 4.995e-07 | 4.431e-07 | 3.919e-07
x2 = 0.4027 | 4.943e-07 | 4.39e-07 | 3.885e-07
x2 = 0.4998 | 4.906e-07 | 4.362e-07 | 3.865e-07
x2 = 0.6043 | 4.881e-07 | 4.345e-07 | 3.851e-07
x2 = 0.7008 | 4.87e-07 | 4.34e-07 | 3.844e-07
x2 = 0.8004 | 4.874e-07 | 4.337e-07 | 3.847e-07
x2 = 0.8981 | 4.897e-07 | 4.344e-07 | 3.858e-07
x2 = 0.9481 | 4.911e-07 | 4.356e-07 | 3.868e-07

CCC(C)Cl (centres undefined) [2-chlorobutane] + CCCCCC
kinematic viscosity [m2/s], [1]
Settings | 283.15 K | 298.15 K | 313.15 K
x1 = 0.0509 | 5.186e-07 | 4.579e-07 | 4.034e-07
x1 = 0.1002 | 5.147e-07 | 4.548e-07 | 4.012e-07
x1 = 0.1802 | 5.09e-07 | 4.501e-07 | 3.98e-07
x1 = 0.3029 | 5.025e-07 | 4.448e-07 | 3.948e-07
x1 = 0.4045 | 4.989e-07 | 4.42e-07 | 3.932e-07
x1 = 0.4991 | 4.975e-07 | 4.408e-07 | 3.926e-07
x1 = 0.5974 | 4.968e-07 | 4.401e-07 | 3.926e-07
x1 = 0.6992 | 4.982e-07 | 4.406e-07 | 3.939e-07
x1 = 0.7996 | 5.007e-07 | 4.419e-07 | 3.961e-07
x1 = 0.8981 | 5.055e-07 | 4.447e-07 | 3.993e-07
x1 = 0.9477 | 5.086e-07 | 4.465e-07 | 4.015e-07

CCC(C)Cl (centres undefined) [2-chlorobutane] + CCCCCCC
kinematic viscosity [m2/s], [1]
Settings | 283.15 K | 298.15 K | 313.15 K
x1 = 0.0506 | 5.287e-07 | 4.649e-07 | 4.086e-07
x1 = 0.0989 | 5.334e-07 | 4.686e-07 | 4.121e-07
x1 = 0.2012 | 5.44e-07 | 4.78e-07 | 4.202e-07
x1 = 0.3016 | 5.558e-07 | 4.876e-07 | 4.283e-07
x1 = 0.3997 | 5.677e-07 | 4.978e-07 | 4.37e-07
x1 = 0.4984 | 5.812e-07 | 5.087e-07 | 4.461e-07
x1 = 0.5994 | 5.966e-07 | 5.206e-07 | 4.558e-07
x1 = 0.6994 | 6.128e-07 | 5.331e-07 | 4.652e-07
x1 = 0.7996 | 6.304e-07 | 5.467e-07 | 4.757e-07
x1 = 0.9006 | 6.496e-07 | 5.609e-07 | 4.866e-07
x1 = 0.9503 | 6.6e-07 | 5.684e-07 | 4.927e-07

CCC(C)CC [3-methylpentane]
[2]
Settings | kinematic viscosity [m2/s]
283.15 K | 4.928e-07
298.15 K | 4.366e-07
313.15 K | 3.881e-07

CCC(C)CC [3-methylpentane] + CCCCCl
kinematic viscosity [m2/s], [1]
Settings | 283.15 K | 298.15 K | 313.15 K
x1 = 0.0518 | 5.496e-07 | 4.734e-07 | 4.175e-07
x1 = 0.094 | 5.448e-07 | 4.704e-07 | 4.155e-07
x1 = 0.2038 | 5.326e-07 | 4.622e-07 | 4.088e-07
x1 = 0.304 | 5.228e-07 | 4.553e-07 | 4.036e-07
x1 = 0.4059 | 5.143e-07 | 4.5e-07 | 3.988e-07
x1 = 0.5021 | 5.075e-07 | 4.453e-07 | 3.952e-07
x1 = 0.5999 | 5.017e-07 | 4.411e-07 | 3.921e-07
x1 = 0.7043 | 4.97e-07 | 4.382e-07 | 3.896e-07
x1 = 0.8049 | 4.945e-07 | 4.365e-07 | 3.884e-07
x1 = 0.9038 | 4.928e-07 | 4.351e-07 | 3.879e-07
x1 = 0.9492 | 4.928e-07 | 4.355e-07 | 3.877e-07

CCCCCCC [heptane]
[2]
Settings | kinematic viscosity [m2/s]
283.15 K | 6.697e-07
298.15 K | 5.754e-07
313.15 K | 4.986e-07

CCCCCC [hexane]
[2]
Settings | kinematic viscosity [m2/s]
283.15 K | 5.125e-07
298.15 K | 4.493e-07
313.15 K | 4.039e-07
